Assays:
sepsis patients = experiment: Phase I clinical trial of L-carnitine treatment for sepsis: survival; assay type: in vivo, human
Description: (§1) These and other features, aspects, and advantages of the present technology will become better understood with regard to the following drawings, which represent the analysis of patients enrolled in a phase I study of L-carnitine in septic shock (see, e.g., Puskarich et al. J Parenter Enteral Nutr 38(6): 736-743, incorporated herein by reference in its entirety). From this study, serum samples collected from carnitine-treated (n=16) and placebo-treated (n=14) patients were assayed by ^1H-nuclear magnetic resonance (NMR) and the resulting spectra were used to identify and quantify metabolites; a total of 38 metabolites were identified in each sample:
(§2) Serum samples were collected from patients enrolled in a previously published double-blind randomized phase I clinical trial of L-carnitine treatment for sepsis (see, e.g., Puskarich et al., J Parenter Enteral Nutr 38(6): 736-743, incorporated herein by reference in its entirety). From this study, serum samples collected from carnitine-treated (n=16) and placebo-treated (n=15) patients were assayed by ^1H-nuclear magnetic resonance (NMR) and the resulting spectra were used to identify and quantify metabolites; a total of 38 metabolites were identified in each sample.
Serum was assayed prior to (T0) and following (T24, T48) treatment with a single 12-g dose of LC or placebo. […]

[1] = Serum metabolites by 1H-NMR before and 24 h and 48 h after L-carnitine treatment; assay type: in vivo, human
Description: as §1
as §2, with “sample. […]” for “sample.”
The levels of these metabolites were also measured in samples acquired at 24 hours and 48 hours after treatment with L-carnitine. […]

septic shock = septic shock patients; cited from earlier work

C[N+](C)(C)C[C@H](O)CC(=O)[O-] [L-carnitine]
mortality rate (sepsis patients; "high" ketone sepsis patients treated with LC compared with "low" ketone patients): higher mortality rate
survival (sepsis patients; patients with "low" amounts of ketone prior to L-carnitine treatment vs patients with "high" amounts): significantly better survival
carnitine levels at 24 hours ([1]; in vivo): higher carnitine levels
citrate levels ([1]; serum, LC-treated patients, following a profound decline): increased
hemodynamic parameters (right atrial pressure, mean arterial pressure, arterial oxygenation) (septic shock): improvements

Source: patent US10330685B2, “Markers for sepsis treatment” (priority 2014, dated 2019)
